What all share (assay type): in vivo, human
The subject of data set [1] is growth hormone concentration in the plasma. The experiment in a line: Evaluation of growth hormone secretion promoting effect (plasma growth hormone, 24-week oral ingestion). The note with it: for growth hormone concentration in the plasma, 0 weeks (before ingestion) / growth hormone concentration in the plasma, 24 weeks (after ingestion) / growth hormone concentration in the plasma, Change rate (24 weeks - 0 weeks): High Dose Group (200 mg/daily, oral), mean±SD; for growth hormone concentration in the plasma, 0 weeks (before ingestion): baseline. On the procedure:
In order to confirm a change in the growth hormone quantity before and after ingestion of the nicotinamide mononucleotide, a test was conducted on healthy males and females aged 50 to 70 years.
As a sample of Working Example 2, a capsule formulation containing the nicotinamide mononucleotide and starch (200 mg of the nicotinamide mononucleotide in 4 capsules) (manufactured by SHINKOWA PHARMACEUTICAL Co., Ltd.) was used.
(§1) Each group consisting of five healthy males and females aged 50 to 70 years in an unbiased age group ingested the above capsule formulation once a day by 4 capsules for 24 weeks (total 10 subjects, 200 mg/daily ingestion). In order to conduct appropriate evaluations, those who had been regularly using medical products for chronic diseases, those who had been consuming healthy foods that may affect clinical research, and those who were currently participating in other clinical researches or clinical trials or had participated in other clinical researches or clinical trials within the last three months were excluded from the subject for the evaluation. The capsule formulations were ingested at 10 am (between meals and fasting state) together with water or lukewarm water (oral administration).
Measurement of the growth hormone quantity in the plasma was conducted by requesting the measurement to an external public organization according to a usual method. FIGS. 4a to 4c indicate transitions of the growth hormone concentration (ng/ml) in the plasma for 24 weeks. FIG. 4a represents the transitions of the whole subjects; FIG. 4b represents the transitions of the male subjects; FIG. 4c represents the transitions of the female subjects. Further, FIGS. 5a to 5c indicate change rates (%) of the blood growth hormone concentration up to 24 weeks when the nicotinamide mononucleotide was orally administered to the subjects for 24 weeks. FIG. 5a represents the change rates of the whole subjects; FIG. 5b represents the change rates of the male subjects; FIG. 5c represents the change rates of the female subjects. Further, Table 2 indicates the numerical values of the growth hormone concentration (ng/ml) in the plasma before the ingestion of the nicotinamide mononucleotide (0 weeks) and after the ingestion of the nicotinamide mononucleotide (24 weeks). Note that the numerical values represent mean values±standard deviation.

For data set [2], the system named is ghrelin concentration in the plasma. The experiment in a line: Evaluation of ghrelin secretion promoting effect (plasma ghrelin, 24-week oral ingestion). The following applies: for ghrelin concentration in the plasma, 0 weeks (before ingestion) / ghrelin concentration in the plasma, 24 weeks (after ingestion) / ghrelin concentration in the plasma, Change rate (24 weeks - 0 weeks): High Dose Group (200 mg/daily, oral), mean±SD; for ghrelin concentration in the plasma, 0 weeks (before ingestion): baseline. The procedure: In order to confirm a change in the ghrelin quantity before and after ingestion of the nicotinamide mononucleotide, a test was conducted on healthy males and females aged 50 to 70 years.
As a sample of Working Example 3, a capsule formulation containing the nicotinamide mononucleotide and starch (200 mg of the nicotinamide mononucleotide in 4 capsules) (manufactured by SHINKOWA PHARMACEUTICAL Co., Ltd.) was used.
as §1
Measurement of the ghrelin quantity in the plasma was conducted by requesting the measurement to an external public organization according to a usual method. FIGS. 6a to 6c indicate transitions of the ghrelin concentration (pg/ml) in the plasma for 24 weeks. FIG. 6a represents the transitions of the whole subjects; FIG. 6b represents the transitions of the male subjects; FIG. 6c represents the transitions of the female subjects. Further, FIGS. 7a to 7c indicate change rates (%) of the blood ghrelin concentration up to 24 weeks when the nicotinamide mononucleotide was orally administered to the subjects for 24 weeks. FIG. 7a represents the change rates of the whole subjects; FIG. 7b represents the change rates of the male subjects; FIG. 7c represents the change rates of the female subjects. Further, Table 3 indicates the numerical values of the ghrelin concentration (pg/ml) in the plasma before the ingestion of the nicotinamide mononucleotide (0 weeks) and after the ingestion of the nicotinamide mononucleotide (24 weeks). Note that the numerical values represent mean values±standard deviation.

The nature of data set [3]: Safety observation in subjects after ingestion for 24 weeks (complaints, stool abnormality). The note with it: healthy males and females aged 50 to 70 years, oral. On the procedure:
as §1, with “the above low dose capsule formulation” for “the above capsule formulation”, “10 subjects, a low dose group: 100 mg/daily ingestion). On the other hand, each group consisting of five healthy males and females aged 50 to 70 years in the unbiased age group ingested the above high dose capsule formulation once a day by 4 capsules for 24 weeks (total 10 subjects, a high dose group: 200 mg/daily” for “10 subjects, 200 mg/daily”, “or clinical trials, or had” for “or clinical trials or had”

The record followed here is patent publication US20220031596A1, “ANTI-AGING AGENT AND ANTI-AGING METHOD” (priority 2018, published 2022).

Turning to `NC(=O)c1ccc[n+]([C@@H]2O[C@H](COP(=O)([O-])O)[C@@H](O)[C@H]2O)c1` [nicotinamide mononucleotide], the “growth hormone concentration in the plasma, 0 weeks (before ingestion)” value came out at 0.91 ± 0.28 ng/mL in data set [1] (Female), 0.21 ± 0.12 ng/mL in data set [1] (Male) and 0.56 ± 0.42 ng/mL in data set [1] (Whole Subjects). Moreover, the “growth hormone concentration in the plasma, 24 weeks (after ingestion)” value in data set [1] (Female) came out at 2.14 ± 2.22 ng/mL; in data set [1] (Male), 2.41 ± 3.44 ng/mL; in data set [1] (Whole Subjects), 2.28 ± 2.73 ng/mL. For the same compound, the “growth hormone concentration in the plasma, Change rate (24 weeks - 0 weeks)” value was 1.24 ± 2.31 ng/mL in data set [1] (Female), 2.20 ± 3.34 ng/mL in data set [1] (Male) and 1.72 ± 2.76 ng/mL in data set [1] (Whole Subjects). In data set [1] (oral, 200 mg/daily, 24 weeks, FIGS. 4a-4c, 5a-5c), the “growth hormone concentrations in the plasma, effect of ingestion (in words)” value is listed as “increased”. For the same compound, the “ghrelin concentration in the plasma, 0 weeks (before ingestion)” value in data set [2] (Female) is 260 ± 111 pg/mL; in data set [2] (Male), 111 ± 91 pg/mL; in data set [2] (Whole Subjects), 186 ± 124 pg/mL. Besides, the “ghrelin concentration in the plasma, 24 weeks (after ingestion)” value in data set [2] (Female) was found to be 990 ± 834 pg/mL; in data set [2] (Male) it was 152 ± 131 pg/mL; in data set [2] (Whole Subjects), 571 ± 716 pg/mL. In addition, the “ghrelin concentration in the plasma, Change rate (24 weeks - 0 weeks)” value stood at 730 ± 847 pg/mL in data set [2] (Female), 40 ± 50 pg/mL in data set [2] (Male) and 385 ± 672 pg/mL in data set [2] (Whole Subjects). For the same compound, the “ghrelin concentrations in the plasma, effect of ingestion (in words)” value in data set [2] (oral, 200 mg/daily, 24 weeks, FIGS. 6a-6c, 7a-7c) was “increased”. Also, the “unidentified complaint (abdominal pain, nausea, vomiting, headache) or stool abnormality after the ingestion for 24 weeks” value in data set [3] (100 mg and 200 mg/daily groups) is “did not show any unidentified complaint”; in data set [3] (100 mg/daily), “did not show any unidentified complaint”; in data set [3] (200 mg/daily), “did not show any unidentified complaint”.
